Source: US6809065B2, “Herbicide containing substituted pyrazole derivative as active ingredient” (SDS Biotech K.K., priority 2001, dated 2004)

What was measured:
[1] = tested on: Setaria viridis; assay: Upland soil treatment (Test Example 2); assay type: in vivo; conditions: soil surface treatment next day after sowing, wettable powder, 1 kg active ingredient per hectare, evaluated 21st day after application
Procedure, shortened: (§1)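 Applies a soil-surface, pre-emergence spray of 1 kg active ingredient/ha (wettable powder in water) one day after sowing; weed control and crop injury are rated on an index scale three weeks later.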

[2] = tested on: Stellaria media; assay: Upland soil treatment (Test Example 2); assay type: in vivo; conditions: soil surface treatment next day after sowing, wettable powder, 1 kg active ingredient per hectare, evaluated 21st day after application
Procedure, shortened: as §1

[3] = tested on: Chenopodium album; assay: Upland soil treatment (Test Example 2); assay type: in vivo; conditions: soil surface treatment next day after sowing, wettable powder, 1 kg active ingredient per hectare, evaluated 21st day after application
Procedure, shortened: as §1

[4] = tested on: Digitaria adscendens; assay: Upland soil treatment (Test Example 2); assay type: in vivo; conditions: soil surface treatment next day after sowing, wettable powder, 1 kg active ingredient per hectare, evaluated 21st day after application
Procedure, shortened: as §1

[5] = tested on: rice (Oryza sative, variety: Koshihikari); assay: Paddy field treatment (Test Example 3), crop; assay type: in vivo, Oryza sativa; conditions: transplanted rice two-leaf period, water surface treatment 10th day after transplantation, 1 kg active ingredient per hectare, evaluated 21st day, lower index = higher safety
Procedure, shortened: (§2)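 Index scoring of herbicidal effect and rice safety 21 days after treatment. The wettable powder, dosed at 1 kg a.i./ha, was dripped onto flooded pots (4 cm water) 10 days after transplanting two-leaf Koshihikari rice. Weed seeds had been sown into the puddled soil.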

[6] = tested on: Setaria viridis; assay: Upland field foliage treatment (Test Example 1); assay type: in vivo; conditions: foliage treatment 14th day after sowing, wettable powder, 1 kg active ingredient per hectare, evaluated 21st day after application
Procedure, shortened: (§3)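 Scored on an index 21 days after treatment: a high value on weeds means more herbicidal effect, and a low value on crops means more crop safety. Treatment was a foliar spray of water-diluted wettable powder at 1 kg a.i./ha, applied to plants 14 days after sowing in upland soil.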

[7] = tested on: Stellaria media; assay: Upland field foliage treatment (Test Example 1); assay type: in vivo; conditions: foliage treatment 14th day after sowing, wettable powder, 1 kg active ingredient per hectare, evaluated 21st day after application
Procedure, shortened: as §3

[8] = tested on: Chenopodium album; assay: Upland field foliage treatment (Test Example 1); assay type: in vivo; conditions: foliage treatment 14th day after sowing, wettable powder, 1 kg active ingredient per hectare, evaluated 21st day after application
Procedure, shortened: as §3

[9] = tested on: Digitaria adscendens; assay: Upland field foliage treatment (Test Example 1); assay type: in vivo; conditions: foliage treatment 14th day after sowing, wettable powder, 1 kg active ingredient per hectare, evaluated 21st day after application
Procedure, shortened: as §3

[10] = tested on: wheat (Triticum aestivum); assay: Upland field foliage treatment (Test Example 1), crop; assay type: in vivo; conditions: foliage treatment 14th day after sowing, 1 kg active ingredient per hectare, evaluated 21st day, lower index = higher safety
Procedure, shortened: as §3

[11] = tested on: soybean (Glycine max); assay: as above; assay type: in vivo; conditions: foliage treatment 14th day after sowing, 1 kg active ingredient per hectare, evaluated 21st day, lower index = higher safety
Procedure, shortened: as §3

[12] = tested on: Echinochloa spp.; assay: Paddy field treatment (Test Example 3); assay type: in vivo, Echinochloa crusgalli; conditions: paddy pot, submerged 4 cm, dropped on water surface 10th day after transplantation, 1 kg active ingredient per hectare, evaluated 21st day
Procedure, shortened: as §2

[13] = tested on: wheat (Triticum aestivum); assay: Upland soil treatment (Test Example 2), crop; assay type: in vivo; conditions: soil surface treatment next day after sowing, 1 kg active ingredient per hectare, evaluated 21st day, lower index = higher safety
Procedure, shortened: as §1

[14] = tested on: soybean (Glycine max); assay: Upland soil treatment (Test Example 2), crop; assay type: in vivo; conditions: soil surface treatment next day after sowing, 1 kg active ingredient per hectare, evaluated 21st day, lower index = higher safety
Procedure, shortened: as §1

[15] = tested on: Ammannia multiflora; assay: Paddy field treatment (Test Example 3); assay type: in vivo; conditions: paddy pot, submerged 4 cm, dropped on water surface 10th day after transplantation, 1 kg active ingredient per hectare, evaluated 21st day
Procedure, shortened: as §2

[16] = tested on: Scirpus juncoides; assay: Paddy field treatment (Test Example 3); assay type: in vivo; conditions: paddy pot, submerged 4 cm, dropped on water surface 10th day after transplantation, 1 kg active ingredient per hectare, evaluated 21st day
Procedure, shortened: as §2

[17] = tested on: Monochoria vaginalis; assay: Paddy field treatment (Test Example 3); assay type: in vivo; conditions: paddy pot, submerged 4 cm, dropped on water surface 10th day after transplantation, 1 kg active ingredient per hectare, evaluated 21st day
Procedure, shortened: as §2

`COC=C(Cn1nc(-c2ccccc2Cl)cc1C)C(=O)OC` [Compound 4] was tested, and the “Herbicidal activity Setaria viridis” value [1] was 4 (herbicidal effect of not less than 70% by weight and less than 90% by weight), the “Herbicidal activity Stellaria media” value [2] was 4 (herbicidal effect of not less than 70% by weight and less than 90% by weight) and the “Herbicidal activity Chenopodium album” value [3] was 4 (herbicidal effect of not less than 70% by weight and less than 90% by weight). The “Herbicidal activity Digitaria adscendens” value [4] was 4 (herbicidal effect of not less than 70% by weight and less than 90% by weight), the “Herbicidal activity Oryza sativa” value [5] was 0 (herbicidal effect of not less than 0% by weight and less than 10% by weight) and the “Herbicidal activity Setaria viridis” value [6] was 4 (herbicidal effect of not less than 70% by weight and less than 90% by weight). The “Herbicidal activity Stellaria media” value [7] was 4 (herbicidal effect of not less than 70% by weight and less than 90% by weight), the “Herbicidal activity Chenopodium album” value [8] was 5 (herbicidal effect of not less than 90% by weight) and the “Herbicidal activity Digitaria adscendens” value [9] was 4 (herbicidal effect of not less than 70% by weight and less than 90% by weight). The “Herbicidal activity Triticum aestivum” value [10] was 0 (herbicidal effect of not less than 0% by weight and less than 10% by weight), the “Herbicidal activity Glycine max” value [11] was 0 (herbicidal effect of not less than 0% by weight and less than 10% by weight) and the “Herbicidal activity Echinochloa spp.” value [12] was 4 (herbicidal effect of not less than 70% by weight and less than 90% by weight). The “Herbicidal activity Triticum aestivum” value [13] was 0 (herbicidal effect of not less than 0% by weight and less than 10% by weight), the “Herbicidal activity Glycine max” value [14] was 0 (herbicidal effect of not less than 0% by weight and less than 10% by weight) and the “Herbicidal activity Ammannia multiflora” value [15] was 3 (herbicidal effect of not less than 50% by weight and less than 70% by weight). The “Herbicidal activity Scirpus juncoides” value [16] was 4 (herbicidal effect of not less than 70% by weight and less than 90% by weight) and the “Herbicidal activity Monochoria vaginalis” value [17] was 5 (herbicidal effect of not less than 90% by weight).

With `COC=C(Cn1nc(-c2c(Cl)cccc2Cl)c(Cl)c1C)C(=O)OC` [Compound 23] the “Herbicidal activity Setaria viridis” value [1] was 4 (herbicidal effect of not less than 70% by weight and less than 90% by weight), the “Herbicidal activity Stellaria media” value [2] was 4 (herbicidal effect of not less than 70% by weight and less than 90% by weight) and the “Herbicidal activity Chenopodium album” value [3] was 4 (herbicidal effect of not less than 70% by weight and less than 90% by weight). The “Herbicidal activity Digitaria adscendens” value [4] was 4 (herbicidal effect of not less than 70% by weight and less than 90% by weight), the “Herbicidal activity Oryza sativa” value [5] was 0 (herbicidal effect of not less than 0% by weight and less than 10% by weight) and the “Herbicidal activity Setaria viridis” value [6] was 4 (herbicidal effect of not less than 70% by weight and less than 90% by weight). For the same molecule, the “Herbicidal activity Stellaria media” value [7] was 5 (herbicidal effect of not less than 90% by weight), the “Herbicidal activity Chenopodium album” value [8] was 4 (herbicidal effect of not less than 70% by weight and less than 90% by weight) and the “Herbicidal activity Digitaria adscendens” value [9] was 4 (herbicidal effect of not less than 70% by weight and less than 90% by weight). For the same molecule, the “Herbicidal activity Triticum aestivum” value [10] was 0 (herbicidal effect of not less than 0% by weight and less than 10% by weight), the “Herbicidal activity Glycine max” value [11] was 0 (herbicidal effect of not less than 0% by weight and less than 10% by weight) and the “Herbicidal activity Echinochloa spp.” value [12] was 3 (herbicidal effect of not less than 50% by weight and less than 70% by weight). For the same molecule, the “Herbicidal activity Triticum aestivum” value [13] was 0 (herbicidal effect of not less than 0% by weight and less than 10% by weight), the “Herbicidal activity Glycine max” value [14] was 0 (herbicidal effect of not less than 0% by weight and less than 10% by weight) and the “Herbicidal activity Ammannia multiflora” value [15] was 5 (herbicidal effect of not less than 90% by weight). The “Herbicidal activity Scirpus juncoides” value [16] was 3 (herbicidal effect of not less than 50% by weight and less than 70% by weight) and the “Herbicidal activity Monochoria vaginalis” value [17] was 4 (herbicidal effect of not less than 70% by weight and less than 90% by weight).
